Experimental data published in EP1078630A1, “Use of sigma receptor agonists for the treatment of depression” (WARNER-LAMBERT COMPANY, priority 1999, dated 2001).

Key:
AdX/CX Swiss mice = experiment: Forced swim test in adrenalectomized/castrated (AdX/CX) Swiss mice; type: in vivo; settings: for effect in AdX/CX animals as compared to non-operated mice: comparison of AdX/CX with non-operated animals; for influence of removal of circulating steroids on the antidepressant effect: AdX/CX versus non-operated mice
Experimental: (§1) Male Swiss OF1 mice (Breeding center of the Faculty of Pharmacy, Montpellier, France), aged 5-6 weeks and weighing 30 ± 2 g are used throughout the study. Animals are housed in plastic cages in groups. They have free access to laboratory chow and water, except during behavioral experiments, and they are kept in a regulated environment (23 ± 1°C, 40-60% humidity) under a 12-hr light/dark cycle (light on at 7:00 a.m.). Experiments are carried out between 9:00 a.m. and 6:00 p.m., in a soundproof and air-regulated experimental room, to which mice are habituated at least 30 min before each experiment.
(§2) PROG and finasteride are suspended in sesame oil; other drugs are solubilized in distilled water or saline solution. Drugs are injected subcutaneously (s.c.) or intraperitoneally (i.p.), in a volume of 100 µl per 20 g of body weight.
(§3) Each mouse is placed individually in a glass cylinder (diameter 12 cm, height 24 cm) filled with water at a height of 12 cm. Water temperature is maintained at 22-23°C. The animal is forced to swim for 15 min on the first day. Animals are then allowed to return to their home cage. On the second day, each mouse is placed again into the water and forced to swim for 6 min. The session is videotaped and the duration of immobility during the last 5 min is measured. The mouse is considered as immobile when it stops struggling and moves only to remain floating in the water, keeping its head above water. Drugs are administered 30 min before the session on the second day. Finasteride is administered twice, 14 and 2 hr before the session on day 2.
About one week after habituation to the animal facilities, animals are anaesthetized with sodium pentobarbital 2%, 100 µl/30 g body weight i.p. Both adrenal glands are removed, through incisions in the back of the animal, just below the breast ribs. The skin is sutured. Then, both testes are ligatured and cut, through an incision in the scrotum. Animals received an injection of gentamycine 10 mg/kg i.p. and recovered within few hours from surgery. After surgery, drinking tap water is replaced by saccharose 1%, NaCI 0.9% solution. Animals are used for behavioral experiments six days after surgery.
(§4) Results are expressed as means ± S.E.M. Data are analyzed using the Dunnett's multiple comparisons test after an analyzis of variance (ANOVA, F values). The criterion for statistical significance is P < 0.05.

Male Swiss OF1 mice = experiment: Forced swim test in non-operated Swiss mice (duration of immobility); type: in vivo
Experimental: as §1, §2, §3, §4

[1] = literature (Ukai et al. 1998, Matsuno et al. 1996, Tottori et al. 1997, Kinsora et al. 1998); cited from earlier work

**Q.** With `CCC(C/C=C/c1ccccc1)(c1ccccc1)N(C)CC1CC1.Cl` (stereo not drawn) [igmesine, (E)-(+)-N-(cyclopropylmethyl)-α-ethyl-N-methyl-α-(3-phenyl-2-propenyl)benzenemethanamine hydrochloride] as the molecule, how does the immobility time (AdX/CX Swiss mice; AdX/CX animals, 20 and 60 mg/kg, dose-dependent, Fig. 5) read?
**A.** shortens significantly the immobility time

**Q.** And the “effect in AdX/CX animals as compared to non-operated mice” value (AdX/CX Swiss mice)?
**A.** enhanced

**Q.** What about the immobility time (Male Swiss OF1 mice; 60 mg/kg i.p., 30 min before session on day 2, Fig. 1A) of the same molecule?
**A.** significantly shortens the immobility time

**Q.** What about the “antidepressant effects in animal models” value [1] of the same molecule?
**A.** reduce the immobility time in the forced swim test or are active in the tail suspension test

**Q.** For `CNCCCN1c2ccccc2CCc2ccccc21` [desipramine], which “influence of removal of circulating steroids on the antidepressant effect” value (AdX/CX Swiss mice) is on record?
**A.** failed to be affected by the removal of circulating steroids

**Q.** And the immobility time (Male Swiss OF1 mice; 30 and 60 mg/kg i.p., Fig. 2)?
**A.** shortened the immobility time

**Q.** With `Cc1ccccc1NC(=N)Nc1ccccc1C` [DTG] as the molecule, how does the “antidepressant effects in animal models” value [1] read?
**A.** reduce the immobility time in the forced swim test or are active in the tail suspension test

**Q.** Which immobility time (AdX/CX Swiss mice; finasteride pretreatment (25 mg/kg s.c., 14 and 2 hr before session) in vehicle-treated AdX/CX mice, Fig. 5) does the source give for `CC(C)(C)NC(=O)[C@H]1CC[C@H]2[C@@H]3CC[C@H]4NC(=O)C=C[C@]4(C)[C@H]3CC[C@]12C` [Finasteride, finasteride] here?
**A.** does not affect the immobility time

**Q.** And the “effect on the diminution of immobility time induced by igmesine” value (AdX/CX Swiss mice; finasteride pretreatment (25 mg/kg s.c., 14 and 2 hr before), igmesine 60 mg/kg, AdX/CX mice, Fig. 5)?
**A.** significantly alters the diminution induced by igmesine

**Q.** For `C=CCN1CCC2(C)c3cc(O)ccc3CC1C2C` (single isomer, unassigned; (+)) [(+)-SKF-10,047], which immobility time (Male Swiss OF1 mice; 30 mg/kg, Fig. 1B) is on record?
**A.** decreases the immobility time

**Q.** And the “antidepressant effects in animal models” value [1]?
**A.** reduce the immobility time in the forced swim test or are active in the tail suspension test

**Q.** What does the source list for `CC(=O)[C@H]1CC[C@H]2[C@@H]3CCC4=CC(=O)CC[C@]4(C)[C@H]3CC[C@]12C` [PROG, progesterone]?
**A.** immobility time (Male Swiss OF1 mice; 5-60 mg/kg dose range, given alone, Fig. 3C): does not affect the immobility time by itself; antagonism of the DHEAS effect on immobility time (Male Swiss OF1 mice; PROG 20-60 mg/kg pre-administered before DHEAS 10 mg/kg, Fig. 3D): significant antagonism of its effect; antagonism of the igmesine-induced reduction of immobility (Male Swiss OF1 mice; PROG pre-administered i.p. 15 min before igmesine, Fig. 4A): fully blocks the igmesine-induced reduction of immobility

**Q.** Which “antidepressant effects in animal models” value [1] does the source give for `COc1ccc(CCN2CCN(CCCc3ccccc3)CC2)cc1OC` [SA4503] here?
**A.** reduce the immobility time in the forced swim test or are active in the tail suspension test

**Q.** What does the source list for `CNCCC(Oc1ccc(C(F)(F)F)cc1)c1ccccc1` (stereo not drawn) [fluoxetine]?
**A.** antidepressant effect in the forced swim test (AdX/CX Swiss mice; AdX/CX Swiss mice, i.p. 30 min before session on day 2, Fig. 6): antidepressant effect; influence of removal of circulating steroids on the antidepressant effect (AdX/CX Swiss mice): failed to be affected by the removal of circulating steroids; immobility time (Male Swiss OF1 mice; 30 and 60 mg/kg i.p., Fig. 2): shortened the immobility time

**Q.** For `CC(C)=CCN1CCC2(C)c3cc(O)ccc3CC1C2C` (single isomer, unassigned; (+)) [(+)-pentazocine], which “antidepressant effects in animal models” value [1] is on record?
**A.** reduce the immobility time in the forced swim test or are active in the tail suspension test

**Q.** For `CC(=O)[C@H]1CC[C@H]2[C@@H]3CC=C4C[C@@H](OS(=O)(=O)O)CC[C@]4(C)[C@H]3CC[C@]12C` [PREGS], which immobility time (Male Swiss OF1 mice; 5-40 mg/kg dose range, Fig. 3B) is on record?
**A.** fails to affect the immobility time

**Q.** What does the source list for `CCCN(CCC)CCc1ccc(OC)c(OCCc2ccccc2)c1` [NE-100]?
**A.** antagonism of the antidepressant effect of DHEAS (AdX/CX Swiss mice; NE-100 i.p. 15 min before DHEAS, AdX/CX mice, Fig. 8B): fully antagonizes; antagonism of the antidepressant effect of igmesine (AdX/CX Swiss mice; NE-100 i.p. 15 min before igmesine, AdX/CX mice, Fig. 8A): fully antagonizes; immobility time (Male Swiss OF1 mice; 1-10 mg/kg i.p. dose-range, given alone, Fig. 1C): does not affect the immobility time by itself; antagonism of the reduction of immobility time induced by igmesine (Male Swiss OF1 mice; NE-100 10 mg/kg pre-administered i.p. 15 min before igmesine, Fig. 1D): completely antagonizes the reduction of immobility time induced by igmesine; antagonism of the DHEAS-induced diminution of immobility time (Male Swiss OF1 mice; NE-100 i.p. 15 min before DHEAS, Fig. 4B): prevents the DHEAS-induced diminution of immobility time

**Q.** What does the source list for `C[C@]12CC[C@H](OS(=O)(=O)O)CC1=CC[C@@H]1[C@@H]2CC[C@]2(C)C(=O)CC[C@@H]12` [DHEAS]?
**A.** immobility time (AdX/CX Swiss mice; AdX/CX animals, 5-60 mg/kg dose-range, Fig. 7): significant diminution of the immobility time at all the doses examined; effect in AdX/CX animals as compared to non-operated mice (AdX/CX Swiss mice): in a more efficient manner as compared to non-operated animals; immobility time (Male Swiss OF1 mice; 10 mg/kg dose (5-60 mg/kg range tested), Fig. 3A): slightly but significantly shortens the immobility time; immobility time (Male Swiss OF1 mice; dosages lower or higher than 10 mg/kg within 5-60 mg/kg, Fig. 3A): devoid of effect

**Q.** For `COc1cccc2c1CCC(=O)N2CCCN1CCN(c2cccc(Cl)c2)CC1` [OPC14523], which “antidepressant effects in animal models” value [1] is on record?
**A.** reduce the immobility time in the forced swim test or are active in the tail suspension test
